# Test results as given in PubChem BioAssay (NCI).
# Where “and” joins values, the source holds several entries; their conditions need not be identical. Equal values may be shown once.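 Tested at 5 concentrations; 48 h exposure; 96-well plates; endpoints linearly interpolated, else capped at highest concentration. GI50: concentration for 50% inhibition of growth. TGI marks complete inhibition of growth.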
# System: CAKI-1 renal
# Assay: growth of human tumour cells (NCI), 48 h
Compound,TGI,GI50
CCN(CC)C(=O)Cn1c(C)cc2ccccc21,> 100 µM,–
CC1(C)NC2C(=O)c3c([nH]c4ccccc34)[C@]3(C)CCC1CC23 (stereo partly drawn),> 100 µM,–
COc1cc(/C=C2\C(=O)N(c3ccccc3)C(c3ccccc3)S2(=O)=O)cc(OC)c1OC (stereo not drawn),> 100 µM,–
COc1ccc2ccccc2c1/C=C/C(=O)c1ccccc1,15 µM,–
C[C@]12CCC(=O)O[C@H]1CCCCO2,> 100 µM,–
Cc1nc(-c2cc3cc([N+](=O)[O-])ccc3oc2=O)cs1,> 100 µM,–
CC(C)=CCC/C(C)=C/C=C/C(C)=C/C=C/C(C)=C/C=C/C=C(C)/C=C/C=C(C)/C=C/[C@H]1C(C(C)(C)O)CC[C@]1(C)O (stereo partly drawn),> 100 µM,–
O=C1C(CN2CCCCC2)CCC1CN1CCCCC1 (stereo not drawn),25 µM,–
CC1=NNC(N)=N/C1=C\C(Sc1ccc(Cl)cc1)c1ccc([N+](=O)[O-])cc1 (stereo not drawn),> 100 µM,–
c1ccc2c(c1)ccn2CCc1c[nH]c2ccccc12,> 10 µM,–
CC(C)[Si](OC1=C(C(=O)N(C)c2cccc(Cl)c2)CCCC1)(C(C)C)C(C)C,25.9 µM,–
Cc1ccc([N+](=O)[O-])cc1S(=O)(=O)Nc1ccc(C2=NNC(c3ccccc3)C2)cc1 (stereo not drawn),53.6 µM,–
COc1cc(C(=O)N(Cc2cccnc2)C(=S)N(Cc2cccnc2)C(=O)c2cc(OC)c(OC)c(OC)c2)cc(OC)c1OC,> 100 µM,–
COc1cc(CNCc2cc(OC)c(OC)c(OC)c2)cc(OC)c1OC,> 10 µM,–
Cc1ccc2c(c1)C(C(=O)N[C@@H]1C(=O)N3[C@@H]1SC(C)(C)[C@@H]3C(=O)O)OCCC2 (stereo partly drawn),> 100 µM,–
O=C(N/N=C\c1cccc2c([N+](=O)[O-])cccc12)Nc1ccccc1,25.5 µM,–
CC(=O)OCC12C(=O)C[C@@H](C)C3(CC(c4ccoc4)OC3=O)C1CCC(OC(C)=O)C21CO1 (stereo partly drawn),> 100 µM,–

Compound,TGI,GI50
O=C(NNC(=S)Nc1cccc(Cl)c1)c1cc(-c2ccccc2)nc2ccccc12,43.1 µM,–
CCOC(=O)C(=Cc1[nH]c2ccccc2c1-c1c[nH]c2ccccc12)C(=O)OCC,30.8 µM,–
Cc1cn(C2CC(N(O)Cc3ccccc3)C(CO[Si](C)(C)C(C)(C)C)O2)c(=O)[nH]c1=O (stereo not drawn),76.1 µM and 31.1 µM,–
O=C1/C(=N/O)Cc2c(Br)ccc(Br)c21,> 100 µM,–
CSc1ncnc2c1ncn2C1CC(Oc2ccc(C)cc2)C(COc2ccc(C)cc2)O1 (stereo not drawn),> 100 µM,–
Cc1ccc(N=Nc2c(O)ccc3cc(S(=O)(=O)O)cc(S(=O)(=O)O)c23)cc1,> 100 µM,–
COc1ccc(C2OC[C@H]3O[C@@H](OCc4ccccc4)[C@H](O)[C@@H](O)[C@@H]3O2)cc1 (stereo partly drawn),> 100 µM,–
O=C(O)Cc1cccc2c(=O)c3ccccc3oc12,> 100 µM,–
CCOC(=O)N/N=C(/N)c1cccc([N+](=O)[O-])c1,> 100 µM,–
Cc1cc(S(=O)(=O)N=C2N(Cc3ccccc3)CCN2Cc2ccccc2)c(S)cc1Cl,> 100 µM,–
Oc1ccc(-c2nc(-c3cccnc3)c(-c3ccc(Cl)cc3)[nH]2)cc1,43.3 µM,–
CCCN1CCC(=O)N(CCC(F)(F)C(F)(F)C(F)(F)C(F)(F)C(F)(F)C(F)(F)F)C1=S,> 100 µM,–
CSc1ccc2c(cc1=O)[C@@H](NC(=O)c1ccc(N)cc1)CCc1cc(O)c(O)c(O)c1-2,> 75 µM and 53.2 µM,> 75 µM and 25.8 µM
CN1CCC(O)(C(C)(C)C)CC1,> 100 µM,–
Cn1cc(NC(=O)c2cc(NC(=O)CN=C(N)N)cn2C)cc1C(=O)NCCC(=N)N,> 100 µM,–
N=C(N)c1ccc(C(NC(=O)CNS(=O)(=O)c2ccc3ccccc3c2)P(=O)(Oc2ccccc2)Oc2ccccc2)cc1 (stereo not drawn),> 100 µM,–
Cn1c2c(c3ccccc31)CC1c3c(c4ccccc4n3C)CC21 (stereo not drawn),> 100 µM,–

# System: HCC-2998 colon
# Assay: growth of human tumour cells (NCI), 48 h
row,Compound,TGI
1,CCN(CC)C(=O)Cn1c(C)cc2ccccc21,> 100 µM
2,CC1(C)NC2C(=O)c3c([nH]c4ccccc34)[C@]3(C)CCC1CC23 (stereo partly drawn),> 100 µM
3,COc1cc(/C=C2\C(=O)N(c3ccccc3)C(c3ccccc3)S2(=O)=O)cc(OC)c1OC (stereo not drawn),> 100 µM
4,COc1ccc2ccccc2c1/C=C/C(=O)c1ccccc1,3.07 µM
5,C[C@]12CCC(=O)O[C@H]1CCCCO2,> 100 µM
6,Cc1nc(-c2cc3cc([N+](=O)[O-])ccc3oc2=O)cs1,> 100 µM
7,CC(C)=CCC/C(C)=C/C=C/C(C)=C/C=C/C(C)=C/C=C/C=C(C)/C=C/C=C(C)/C=C/[C@H]1C(C(C)(C)O)CC[C@]1(C)O (stereo partly drawn),30 µM
8,O=C1C(CN2CCCCC2)CCC1CN1CCCCC1 (stereo not drawn),> 62.5 µM
9,CC1=NNC(N)=N/C1=C\C(Sc1ccc(Cl)cc1)c1ccc([N+](=O)[O-])cc1 (stereo not drawn),> 100 µM
10,c1ccc2c(c1)ccn2CCc1c[nH]c2ccccc12,> 10 µM
11,CC(C)[Si](OC1=C(C(=O)N(C)c2cccc(Cl)c2)CCCC1)(C(C)C)C(C)C,34 µM
12,Cc1ccc([N+](=O)[O-])cc1S(=O)(=O)Nc1ccc(C2=NNC(c3ccccc3)C2)cc1 (stereo not drawn),44.9 µM
13,COc1cc(C(=O)N(Cc2cccnc2)C(=S)N(Cc2cccnc2)C(=O)c2cc(OC)c(OC)c(OC)c2)cc(OC)c1OC,62.2 µM
14,COc1cc(CNCc2cc(OC)c(OC)c(OC)c2)cc(OC)c1OC,> 10 µM
15,Cc1ccc2c(c1)C(C(=O)N[C@@H]1C(=O)N3[C@@H]1SC(C)(C)[C@@H]3C(=O)O)OCCC2 (stereo partly drawn),> 100 µM
16,O=Cc1ccc2c(c1)CC1(Cc3ccccc3C1)C2,> 100 µM
17,O=C(N/N=C\c1cccc2c([N+](=O)[O-])cccc12)Nc1ccccc1,32 µM
18,CC(=O)OCC12C(=O)C[C@@H](C)C3(CC(c4ccoc4)OC3=O)C1CCC(OC(C)=O)C21CO1 (stereo partly drawn),> 100 µM
19,CON(C)C(=O)CNC(=O)OCC1c2ccccc2-c2ccccc21,> 100 µM

row,Compound,TGI
1,O=C(NNC(=S)Nc1cccc(Cl)c1)c1cc(-c2ccccc2)nc2ccccc12,28.2 µM
2,CCOC(=O)C(=Cc1[nH]c2ccccc2c1-c1c[nH]c2ccccc12)C(=O)OCC,25 µM
3,Cc1cn(C2CC(N(O)Cc3ccccc3)C(CO[Si](C)(C)C(C)(C)C)O2)c(=O)[nH]c1=O (stereo not drawn),41.7 µM and 34.3 µM
4,O=C1/C(=N/O)Cc2c(Br)ccc(Br)c21,> 100 µM
5,CSc1ncnc2c1ncn2C1CC(Oc2ccc(C)cc2)C(COc2ccc(C)cc2)O1 (stereo not drawn),> 100 µM
6,Cc1ccc(N=Nc2c(O)ccc3cc(S(=O)(=O)O)cc(S(=O)(=O)O)c23)cc1,> 100 µM
7,COc1ccc(C2OC[C@H]3O[C@@H](OCc4ccccc4)[C@H](O)[C@@H](O)[C@@H]3O2)cc1 (stereo partly drawn),> 100 µM
8,O=C(O)Cc1cccc2c(=O)c3ccccc3oc12,46 µM
9,O=C(O)c1ccc([N+](=O)[O-])c2cc3cnccc3nc12,50.3 µM
10,CCOC(=O)N/N=C(/N)c1cccc([N+](=O)[O-])c1,> 100 µM
11,Cc1cc(S(=O)(=O)N=C2N(Cc3ccccc3)CCN2Cc2ccccc2)c(S)cc1Cl,> 100 µM
12,Oc1ccc(-c2nc(-c3cccnc3)c(-c3ccc(Cl)cc3)[nH]2)cc1,33.1 µM
13,CCCN1CCC(=O)N(CCC(F)(F)C(F)(F)C(F)(F)C(F)(F)C(F)(F)C(F)(F)F)C1=S,> 100 µM
14,CSc1ccc2c(cc1=O)[C@@H](NC(=O)c1ccc(N)cc1)CCc1cc(O)c(O)c(O)c1-2,32.9 µM and 37.3 µM
15,CN1CCC(O)(C(C)(C)C)CC1,> 100 µM
16,Cn1cc(NC(=O)c2cc(NC(=O)CN=C(N)N)cn2C)cc1C(=O)NCCC(=N)N,> 100 µM
17,N=C(N)c1ccc(C(NC(=O)CNS(=O)(=O)c2ccc3ccccc3c2)P(=O)(Oc2ccccc2)Oc2ccccc2)cc1 (stereo not drawn),> 100 µM
18,Cn1c2c(c3ccccc31)CC1c3c(c4ccccc4n3C)CC21 (stereo not drawn),> 100 µM

# System: HOP-92 NSCLC
# Assay: growth of human tumour cells (NCI), 48 h
row,Compound,TGI
1,CCN(CC)C(=O)Cn1c(C)cc2ccccc21,> 100 µM
2,CC1(C)NC2C(=O)c3c([nH]c4ccccc34)[C@]3(C)CCC1CC23 (stereo partly drawn),> 100 µM
3,COc1cc(/C=C2\C(=O)N(c3ccccc3)C(c3ccccc3)S2(=O)=O)cc(OC)c1OC (stereo not drawn),> 100 µM
4,COc1ccc2ccccc2c1/C=C/C(=O)c1ccccc1,6.97 µM
5,C[C@]12CCC(=O)O[C@H]1CCCCO2,71.1 µM
6,Cc1nc(-c2cc3cc([N+](=O)[O-])ccc3oc2=O)cs1,> 100 µM
7,CC(C)=CCC/C(C)=C/C=C/C(C)=C/C=C/C(C)=C/C=C/C=C(C)/C=C/C=C(C)/C=C/[C@H]1C(C(C)(C)O)CC[C@]1(C)O (stereo partly drawn),28.3 µM
8,O=C1C(CN2CCCCC2)CCC1CN1CCCCC1 (stereo not drawn),54.6 µM
9,CC1=NNC(N)=N/C1=C\C(Sc1ccc(Cl)cc1)c1ccc([N+](=O)[O-])cc1 (stereo not drawn),> 100 µM
10,c1ccc2c(c1)ccn2CCc1c[nH]c2ccccc12,> 10 µM
11,CC(C)[Si](OC1=C(C(=O)N(C)c2cccc(Cl)c2)CCCC1)(C(C)C)C(C)C,25.4 µM
12,Cc1ccc([N+](=O)[O-])cc1S(=O)(=O)Nc1ccc(C2=NNC(c3ccccc3)C2)cc1 (stereo not drawn),> 100 µM
13,COc1cc(C(=O)N(Cc2cccnc2)C(=S)N(Cc2cccnc2)C(=O)c2cc(OC)c(OC)c(OC)c2)cc(OC)c1OC,52.2 µM
14,COc1cc(CNCc2cc(OC)c(OC)c(OC)c2)cc(OC)c1OC,> 10 µM
15,Cc1ccc2c(c1)C(C(=O)N[C@@H]1C(=O)N3[C@@H]1SC(C)(C)[C@@H]3C(=O)O)OCCC2 (stereo partly drawn),> 100 µM
16,O=Cc1ccc2c(c1)CC1(Cc3ccccc3C1)C2,32.9 µM
17,O=C(N/N=C\c1cccc2c([N+](=O)[O-])cccc12)Nc1ccccc1,30.4 µM
18,CC(=O)OCC12C(=O)C[C@@H](C)C3(CC(c4ccoc4)OC3=O)C1CCC(OC(C)=O)C21CO1 (stereo partly drawn),> 100 µM

row,Compound,TGI
1,CON(C)C(=O)CNC(=O)OCC1c2ccccc2-c2ccccc21,> 100 µM
2,O=C(NNC(=S)Nc1cccc(Cl)c1)c1cc(-c2ccccc2)nc2ccccc12,30.2 µM
3,CCOC(=O)C(=Cc1[nH]c2ccccc2c1-c1c[nH]c2ccccc12)C(=O)OCC,23.5 µM
4,Cc1cn(C2CC(N(O)Cc3ccccc3)C(CO[Si](C)(C)C(C)(C)C)O2)c(=O)[nH]c1=O (stereo not drawn),36.8 µM and 29.6 µM
5,O=C1/C(=N/O)Cc2c(Br)ccc(Br)c21,> 100 µM
6,CSc1ncnc2c1ncn2C1CC(Oc2ccc(C)cc2)C(COc2ccc(C)cc2)O1 (stereo not drawn),> 100 µM
7,Cc1ccc(N=Nc2c(O)ccc3cc(S(=O)(=O)O)cc(S(=O)(=O)O)c23)cc1,> 100 µM
8,COc1ccc(C2OC[C@H]3O[C@@H](OCc4ccccc4)[C@H](O)[C@@H](O)[C@@H]3O2)cc1 (stereo partly drawn),> 100 µM
9,O=C(O)Cc1cccc2c(=O)c3ccccc3oc12,> 100 µM
10,O=C(O)c1ccc([N+](=O)[O-])c2cc3cnccc3nc12,45.8 µM
11,CCOC(=O)N/N=C(/N)c1cccc([N+](=O)[O-])c1,> 100 µM
12,Cc1cc(S(=O)(=O)N=C2N(Cc3ccccc3)CCN2Cc2ccccc2)c(S)cc1Cl,> 100 µM
13,CCCN1CCC(=O)N(CCC(F)(F)C(F)(F)C(F)(F)C(F)(F)C(F)(F)C(F)(F)F)C1=S,> 100 µM
14,CSc1ccc2c(cc1=O)[C@@H](NC(=O)c1ccc(N)cc1)CCc1cc(O)c(O)c(O)c1-2,> 100 µM
15,Cn1cc(NC(=O)c2cc(NC(=O)CN=C(N)N)cn2C)cc1C(=O)NCCC(=N)N,> 100 µM
16,N=C(N)c1ccc(C(NC(=O)CNS(=O)(=O)c2ccc3ccccc3c2)P(=O)(Oc2ccccc2)Oc2ccccc2)cc1 (stereo not drawn),> 100 µM
17,Cn1c2c(c3ccccc31)CC1c3c(c4ccccc4n3C)CC21 (stereo not drawn),> 100 µM

# System: HS 578T breast
# Assay: growth of human tumour cells (NCI), 48 h
row,Compound,TGI [µM]
1,CCN(CC)C(=O)Cn1c(C)cc2ccccc21,> 100
